# Measured values from patent US10407488B2, “Therapy for treatment or prevention of conditions associated with bleeding or hypocoagulation” (THE REGENTS OF THE UNIVERSITY OF CALIFORNIA, priority 2013, dated 2019).
# Assays:
# [1] = system: Balb/c mice; test: Tail clip bleeding assay, APC-induced bleeding in Balb/c mice; assay type: in vivo, mouse
# Protocol: Mice were anesthetized with Isoflurane 3%, placed on temperature controlled heating pads (37° C.), and the distal portion of the tail was cut at 1.5 mm diameter after which the tail was immersed in a predefined volume of 37° C. saline (0.9% NaCl) for 20 minutes. To study effects on bleeding and clot stability, tubes were changed after 10 minutes to collect blood for the first and second 10 minutes separately. Blood loss was determined by the hemoglobin concentration in the saline solution after red cell lysis with 2% acetic acid and measured by absorbance at 490 nm. Using a hemoglobin standard derived from defined blood volumes, blood loss was calculated assuming a hematocrit of 46% and expressed in μL/g body weight. Groups of Balb/c mice were injected intravenously (tail vein) with equal volumes (200 μL) of ^superFVa or saline 2 minutes prior to intravenous injection of rhAPC (Xigris®). Immediately after APC injection tail cut was performed. All agents were diluted in sterile sodium chloride 0.9% for injection (Hospira Inc).
# [2] = system: thrombin generation in normal human plasma; test: Thrombin generation in NHP in the presence of rivaroxaban or apixaban; assay type: biochemical; conditions: factor alone: rhFVIIa 2 μg/ml, ^superFVa 400 nM; NOAC 200 nM
# Protocol: Thrombin generation or Endogenous Thrombin Potential (ETP) assays were performed as described. Briefly, plasma samples supplemented with CTI, TF, PCPS were preincubated […] in the presence or absence of rivaroxaban, apixaban, Kcentra®, NovoSeven® or ^superFVa. Thrombin generation was initiated by addition of CaCl2 and Z-Gly-Gly-Arg-AMC in HBS/0.5% BSA. The final reaction mixture contained, 50% plasma, 0.725 μM CTI, 0.2 Pm TF, 4 μM PCPS vesicles, 0.5 mM Z-GGR-AMC, 7.6 mM CaCl2 in a total volume of 100 μl. Concentrations of rivaroxaban, apixaban, Kcentra®, NovoSeven® or ^superFVa are indicated in the result section and in the figure legends. Fluorescence was measured at excitation/emission wavelengths of […] using Gemini EM fluorescent plate reader (Molecular Devices). Fluorescence time course data were converted to Nm thrombin as described. ETP, defined as the area under the curve (AUC) and the peak height were determined using Origin software.
# [3] = system: aPTT clotting time in murine plasma; test: aPTT clotting assay in murine plasma with rhAPC; assay type: biochemical, mouse; conditions: 5 U/mL FVa variants, APC, ~100 seconds without FVa
# Protocol: (§1) APC-mediated inactivation of FVa was analyzed in ETP assays and aPTT clotting assays. FVa mutants were incubated with equal volumes of either recombinant human APC (Xigris®) or buffer in human and murine Balb/c plasma.
# (§2) Plasma (50 μL) was mixed with 50 μL of a PTT reagent (APTT-XL, Pacific Hemostasis) and incubated at 37° C. for 3 minutes in the presence of FVa either with recombinant human APC or buffer. Following addition of 25 μL of 50 mM CaCl2 in HBS, 0.5% BSA, the clotting time was recorded using an ST4 coagulometer (Diagnostica Stago).
# [4] = system: thrombin generation in FVIII-deficient plasma; conditions: von Drygalski et al. JTH 2014; cited from earlier work
# [5] = system: Balb/c mice; test: Ex vivo whole blood aPTT after intravenous APC in Balb/c mice; parameters: species or system mouse
# Protocol: Recombinant murine APC was administered intravenously to Balb/c mice by tail vein injection 2 minutes prior to retroorbital blood harvest in siliconized microcapillaries (75 μL) prefilled with 20 μL Sodium-Citrate (3.8%). Whole blood aPTT was performed immediately, whereby 50 μL of blood were mixed with 50 μL of aPTT reagent (APTT-XL, Pacific Hemostasis) and incubated at 37° C. for 3 minutes in the presence of FVa or buffer. Following addition of 25 μL of 130 mM CaCl2 in HBS, 0.5% BSA, the clotting time was recorded using an ST4 coagulometer (Diagnostica Stago).
# [6] = system: aPTT clotting time in human plasma; test: aPTT clotting assay in human plasma with rhAPC; assay type: biochemical
# Protocol: as §1, §2
# [7] = system: thrombin generation in FVIII-deficient plasma; test: Thrombin generation (ETP) assay in FVIII-deficient plasma; assay type: biochemical, human; conditions: increasing concentrations of ^superFVa alone
# Protocol: Endogenous thrombin potential (ETP) assays were performed as described (19). Briefly, plasma samples supplemented with CTI, TF, PCPS vesicles and coagulation factors were preincubated with the plasma at 37° C. Thrombin generation was initiated by addition of CaCl2 and Z-Gly-Gly-Arg-AMC in HBS/0.5% BSA. The final reaction mixture contained, 50% plasma, 0.2 pM TF, […] PCPS vesicles, 0.725 μM CTI, 0.5 mM Z-GGR-AMC and 7.6 mM CaCl2 in a total volume of 100 μL. In some experiments, 1.25 μg/ml anti-FVIII antibody was added to the plasma and ETP was determined after 1 hour of preincubation. Fluorescence was measured at excitation/emission wavelengths of […] using Gemini EM fluorescent plate reader (Molecular Devices). Fluorescence time course data were converted to nM thrombin as described (20). ETP, defined as the area under the curve (AUC) and the peak height were determined using Origin or GraphPad Prism software.
substance,measurement,setting,value
"^superFVa: engineered APC-resistant FVa variant (SEQ ID NO:4): R306Q, R506Q, R679Q, Cys609-Cys1691 disulfide, S2183A, B-domain deleted",mean blood loss,"[1]; ^superFVa 5 U/mL 2 minutes prior to APC 1.25 mg/kg, 20 minutes",21 µL/g
same,mean blood loss,"[1]; ^superFVa 25 U/mL 2 minutes prior to APC 1.25 mg/kg, 20 minutes",9.2 µL/g
same,mean blood loss,"[1]; ^superFVa 25 U/mL + APC, first 10 minutes",4.3 µL/g
same,mean blood loss,"[1]; ^superFVa 25 U/mL + APC, second 10 minutes",4.8 µL/g
same,mean blood loss,[1]; ^superFVa iv 3.5 mg/kg 2 min prior to wt APC 1.25 mg/kg,9.2 µL/g
same,ability to enhance the ETP of NHP suppressed with rivaroxaban or apixaban,[2],nor ^superFVa at high concentration (400 nM) were able to enhance the ETP
same,aPTT,[3],fully corrected the aPTT
same,increase of ETP in human FVIII-deficient plasma,[4],approximately 2 fold
same,effect on whole blood aPTT clotting times,[5]; 1 nM added to whole blood after iv APC 0.5 mg/kg,significantly normalized aPTT clotting times
same,mean whole blood aPTT,[5]; FVa variant added ex vivo to whole blood drawn after APC 0.5 mg/kg injection,30 s
same,aPTT,"[6]; 0.05 U/mL FVa variants, 10 nM APC, human plasma, ~100 seconds without FVa",fully corrected the aPTT
same,lower concentration normalizing the aPTT compared to FVa,[6]; human plasma with APC,100 fold
same,increase in ETP,[7],~2.5 fold
same,increase in peak height,[7],~2.5 fold
